The EC50 is the concentration that produces a half-maximal response.

EC50 data for 14 compounds are collected here from patent publication US20240270821A1, “GIP/GLP1/GCG TRI-RECEPTOR AGONISTS AND USES THEREOF” (priority 2023, published 2024).

Where two headings read alike, the source gives them in different places. Starred links: 1 amine or outer side, 2 acyl side, 3 side chain; linkers in the order of their positions; H or OH if unused. Non-standard residues stand in square brackets, D forms with d. Residues, ends and D or L forms follow the SMILES beside them. Groups on a side chain read outwards from the residue. No end group written: not given here. *: point of attachment. C20 diacid = O=C(O)CCCCCCCCCCCCCCCCCCC(=O)*; C18 diacid = O=C(O)CCCCCCCCCCCCCCCCC(=O)*; αMePhe(2-F) = C[C@](N)(Cc1ccccc1F)C(=O)O; γGlu = O=C(O)[C@H](CCC(=O)[*:2])N[*:1]; NMeY = CN[C@@H](Cc1ccc(O)cc1)C(=O)O; αMe4Pal = C[C@](N)(Cc1ccncc1)C(=O)O; αMeY = C[C@](N)(Cc1ccc(O)cc1)C(=O)O; αMeF = C[C@](N)(Cc1ccccc1)C(=O)O; 4Pal = N[C@@H](Cc1ccncc1)C(=O)O; αMeL = CC(C)C[C@](C)(N)C(=O)O; αMeS = C[C@](N)(CO)C(=O)O; Orn = NCCC[C@H](N)C(=O)O; AEEA = NCCOCCOCC(=O)O; Aib = CC(C)(N)C(=O)O

Assay type in all cases: cell-based
Assay [1] concerns the target T1, hGLP-1R (Homo sapiens, UniProt P43220). The assay can be described thus: Functional cAMP activation in the presence of 0.1% casein (no HSA). Particulars: read-out: Relative cAMP EC50, hGLP-1R.
Another assay concerns the target hGcgR (Homo sapiens, UniProt P47871). The description is as above. Conditions: read-out: Relative cAMP EC50, hGcgR.
Assay [2] concerns the target T2, hGIPR (Homo sapiens, UniProt P48546).
T2 sequence (P48546 22-466): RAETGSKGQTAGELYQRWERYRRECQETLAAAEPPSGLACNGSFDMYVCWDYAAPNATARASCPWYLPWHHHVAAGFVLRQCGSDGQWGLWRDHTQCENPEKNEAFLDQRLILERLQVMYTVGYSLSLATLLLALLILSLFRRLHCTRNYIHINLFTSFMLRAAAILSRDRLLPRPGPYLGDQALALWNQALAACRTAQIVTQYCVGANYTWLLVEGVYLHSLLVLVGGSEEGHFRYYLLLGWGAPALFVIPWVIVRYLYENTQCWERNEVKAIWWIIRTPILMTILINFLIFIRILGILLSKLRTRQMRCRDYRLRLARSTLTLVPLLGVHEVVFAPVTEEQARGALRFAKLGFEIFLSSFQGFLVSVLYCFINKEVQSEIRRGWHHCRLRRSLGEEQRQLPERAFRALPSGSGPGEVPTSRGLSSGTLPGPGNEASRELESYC
The assay is described as follows: Functional cAMP activity in the presence of 1% HSA. Conditions: read-out: cAMP Rel EC50, hGIPR.

Assay [3] concerns the target T2, hGIPR. The assay is described as follows: Functional cAMP activation in the presence of 0.1% casein (no HSA). Conditions: read-out: Relative cAMP EC50, hGIPR.
Assay [4] concerns the target T1, hGLP-1R. The assay can be described thus: Functional cAMP activity in the presence of 1% HSA. Conditions: read-out: cAMP Rel EC50, hGLP-1R.
The target of a further assay is human GcgR (Homo sapiens, UniProt P47871). The assay is described as follows: Functional cAMP activity in the presence of 1% HSA. Particulars: read-out: cAMP Rel EC50, hGcgR.
Where [5] appears, read: in the presence of 0.1% casein (no HSA), geometric mean.
The mark [6] stands for this setting: 0.1% casein, no HSA, geometric mean.
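For Relative cAMP EC50, hGIPR in this document: intracellular cAMP rise after 30 min at 37 °C read by HTRF against a standard curve, scaled between buffer alone (0%) and top control ligand concentration (100%), four-parameter fit.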
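For Relative cAMP EC50, hGLP-1R in this document: intracellular cAMP rise after 30 min at 37 °C read by HTRF, normalized between buffer only (0%) and maximal control ligand (100%), four-parameter variable-slope fit.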
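For Relative cAMP EC50, hGcgR in this document: intracellular cAMP rise after 30 min at 37 °C, read by HTRF against a cAMP standard curve, scaled from buffer only (0%) to maximal control ligand response (100%).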

T1 sequence (P43220 24-463): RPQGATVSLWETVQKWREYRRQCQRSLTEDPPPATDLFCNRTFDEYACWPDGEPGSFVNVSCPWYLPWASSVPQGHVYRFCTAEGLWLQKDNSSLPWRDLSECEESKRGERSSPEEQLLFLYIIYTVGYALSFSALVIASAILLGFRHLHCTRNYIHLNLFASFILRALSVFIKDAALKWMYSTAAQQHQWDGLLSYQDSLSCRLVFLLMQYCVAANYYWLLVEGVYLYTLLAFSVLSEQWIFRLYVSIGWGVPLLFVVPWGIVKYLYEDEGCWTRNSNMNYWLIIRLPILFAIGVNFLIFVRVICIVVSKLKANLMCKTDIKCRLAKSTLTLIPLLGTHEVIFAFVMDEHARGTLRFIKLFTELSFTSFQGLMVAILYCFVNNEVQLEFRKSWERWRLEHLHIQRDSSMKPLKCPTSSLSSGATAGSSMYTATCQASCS
Sequence of hGcgR (P47871 26-477): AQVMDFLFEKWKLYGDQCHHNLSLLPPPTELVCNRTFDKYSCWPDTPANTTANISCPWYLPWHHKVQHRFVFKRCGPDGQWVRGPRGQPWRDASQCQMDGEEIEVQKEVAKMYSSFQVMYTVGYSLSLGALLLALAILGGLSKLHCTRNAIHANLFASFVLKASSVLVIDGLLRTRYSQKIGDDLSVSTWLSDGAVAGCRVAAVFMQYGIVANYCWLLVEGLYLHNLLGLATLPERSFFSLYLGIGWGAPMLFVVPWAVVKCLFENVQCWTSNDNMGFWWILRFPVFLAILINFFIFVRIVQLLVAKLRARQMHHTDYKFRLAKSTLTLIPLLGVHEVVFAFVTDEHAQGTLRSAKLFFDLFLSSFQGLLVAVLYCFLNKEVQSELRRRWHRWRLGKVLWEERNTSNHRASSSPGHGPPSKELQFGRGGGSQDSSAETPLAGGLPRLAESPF
Sequence of human GcgR (P47871 26-477): as above

For “H-Y[Aib]QGTFTSD[4Pal]SQ[αMeL]LDKK([AEEA-γGlu-C18 diacid])AQ[αMe4Pal]AFIEYLIAGGPSSGAPPPSGSEE-NH2 [Example 1029]”, the EC50 at hGLP-1R [1] (setting [5]) came to 1.79 nM; at hGcgR (setting [5]) it was 5.35 nM; on hGIPR [2], 22.3 nM; on hGIPR [3] (setting [5]) it was 0.163 nM; on hGLP-1R [4] it was 170 nM; at human GcgR, 511 nM.
As for “H-Y[Aib]QGTFTSD[4Pal]SQ[αMeL]LD[Orn]K([γGlu-γGlu-C18 diacid])AQ[αMe4Pal]AFIE[αMeY]LIE[Aib]GPSSGEPPPSGSEE-NH2 [Example 1093]”, the EC50 at hGLP-1R [1] (setting [5]) was determined as 0.954 nM; at hGcgR (setting [5]), 7.72 nM; at hGIPR [2], 26.8 nM; at hGIPR [3] (setting [5]) it was 0.152 nM; on hGLP-1R [4] it was 141 nM; at human GcgR it was 958 nM.
Regarding “H-Y[Aib]QGT[αMePhe(2-F)]TSD[4Pal][αMeS]I[αMeL]LD[Orn]K([AEEA-γGlu-C18 diacid])AQ[Aib][Orn]FI[dE]YLIEGGPSSGEPPPSGTEE-NH2 [Example 533]”, the EC50 on hGLP-1R [1] turned out to be 0.334 nM; at hGcgR, 5.02 nM; at hGIPR [2] it was 3.23 nM; at hGIPR [3], 0.0388 nM; at hGLP-1R [4], 30 nM; on human GcgR, 453 nM.
For the compound “[NMeY][Aib]QGTFTSD[4Pal][αMeS]I[αMeL]LD[Orn]K([dE-γGlu-C18 diacid])AQ[αMe4Pal]QFIQ[αMeY]LIE[Aib]GPSSGAPPPSGGGE-NH2 [Example 1135]”, the EC50 on hGLP-1R [1] (setting [5]) came to 0.746 nM; on hGcgR (setting [5]), 1.76 nM; on hGIPR [2], 0.864 nM; at hGIPR [3] (setting [5]), 0.0126 nM; at hGLP-1R [4] it was 63.2 nM; on human GcgR it was 142 nM.
Turning to “H-Y[Aib]Q[dA]T[αMePhe(2-F)]TSD[4Pal][αMeS]I[αMeL]LD[Orn]K([γGlu-γGlu-C18 diacid])AQ[Aib]EFI[dE][αMeY]LIEGGPSSGAPPPSGGGE-NH2 [Example 1225]”, the EC50 came to 0.399 nM on hGLP-1R [1] (setting [6]); 2.45 nM on hGcgR (setting [6]); 3.67 nM on hGIPR [2]; 0.0531 nM on hGIPR [3] (setting [6]); 31.4 nM on hGLP-1R [4]; 275 nM on human GcgR.
For the compound “H-Y[Aib]QGT[αMePhe(2-F)]TSD[4Pal][αMeS]I[αMeL]LD[Orn]K([γGlu-γGlu-C18 diacid])AQ[αMe4Pal]EFI[dE][αMeY]LIEGGPPS[Aib][Orn]PPP[Orn]GE-NH2 [Example 1227]”, the EC50 on hGLP-1R [1] (setting [6]) came out at 0.387 nM; at hGcgR (setting [6]), 1.99 nM; on hGIPR [2] it was 0.527 nM; on hGIPR [3] (setting [6]), 0.00621 nM; on hGLP-1R [4] it was 39.5 nM; at human GcgR, 199 nM.
On to “H-Y[Aib]QGT[αMeF]TSD[4Pal][αMeS]I[αMeL]LD[Orn]K([AEEA-γGlu-C18 diacid])AQ[αMe4Pal]EFI[dE][αMeY]LIEGGPSSGAPPPSGE-NH2 [Example 1164]”, for which the EC50 on hGLP-1R [1] (setting [5]) is 0.495 nM; on hGcgR (setting [5]), 2.83 nM; at hGIPR [2] it was 1.17 nM; on hGIPR [3] (setting [5]), 0.0104 nM; on hGLP-1R [4], 63.5 nM; at human GcgR, 359 nM.
Take `CC[C@H](C)[C@H](NC(=O)[C@H](Cc1ccccc1)NC(=O)[C@H](C)NC(=O)C(C)(C)NC(=O)[C@H](CCC(N)=O)NC(=O)[C@H](C)NC(=O)[C@H](CCCCNC(=O)COCCOCCNC(=O)CC[C@H](NC(=O)CCCCCCCCCCCCCCCCC(=O)O)C(=O)O)NC(=O)[C@H](CCCN)NC(=O)[C@H](CC(=O)O)NC(=O)[C@H](CC(C)C)NC(=O)[C@](C)(CC(C)C)NC(=O)[C@@H](NC(=O)[C@H](CO)NC(=O)[C@H](Cc1ccncc1)NC(=O)[C@H](CC(=O)O)NC(=O)[C@H](CO)NC(=O)[C@@H](NC(=O)[C@](C)(Cc1ccccc1F)NC(=O)[C@@H](NC(=O)CNC(=O)[C@H](CCC(N)=O)NC(=O)C(C)(C)NC(=O)[C@@H](N)Cc1ccc(O)cc1)[C@@H](C)O)[C@@H](C)O)[C@@H](C)CC)C(=O)N[C@@H](CCC(=O)O)C(=O)N[C@@H](Cc1ccc(O)cc1)C(=O)N[C@@H](CC(C)C)C(=O)N[C@@H](CCC(=O)O)C(=O)N[C@@H](CCC(=O)O)C(=O)NCC(=O)NCC(=O)N1CCC[C@H]1C(=O)N[C@@H](CO)C(=O)N[C@@H](CO)C(=O)NCC(=O)N[C@@H](CCC(=O)O)C(=O)N1CCC[C@H]1C(=O)N1CCC[C@H]1C(=O)N1CCC[C@H]1C(=O)N[C@@H](CO)C(N)=O` [Example 486] (H-Y[Aib]QGT[αMePhe(2-F)]TSD[4Pal]SI[αMeL]LD[Orn]K([AEEA-γGlu-C18 diacid])AQ[Aib]AFIEYLEEGGPSSGEPPPS-NH2): the EC50 on hGLP-1R [1] was found to be 0.375 nM; at hGcgR it was 4.43 nM; at hGIPR [2], 2.57 nM; on hGIPR [3], 0.0262 nM; on hGLP-1R [4] it was 35 nM; at human GcgR, 647 nM.
“H-Y[Aib]QGT[αMePhe(2-F)]TSD[4Pal]SILLD[Orn]K([γGlu-γGlu-C18 diacid])AQ[αMe4Pal][Orn]FI[dE]YLIEGGPSSGEPPPSGTEE-NH2 [Example 584]”: the EC50 at hGLP-1R [1] came out at 1 nM; on hGcgR, 5.29 nM; at hGIPR [2], 5.5 nM; on hGIPR [3] it was 0.0461 nM; on hGLP-1R [4], 137 nM; on human GcgR, 497 nM.
“Y[Aib]QGT[αMePhe(2-F)]TSD[4Pal]SI[αMeL]LD[Orn]K([AEEA-γGlu-C18 diacid])AQ[αMe4Pal][Orn]FI[dE][αMeY]LIEGGPSSGDPPPESE-NH2 [Example 729]”: the concentration giving a half-maximal response (EC50) was found to be 0.288 nM on hGLP-1R [1]; 2.11 nM on hGcgR; 1.43 nM on hGIPR [2]; 0.0113 nM on hGIPR [3]; 27 nM at hGLP-1R [4]; 276 nM on human GcgR.
Regarding “H-Y[Aib]QGT[αMePhe(2-F)]TSD[4Pal][αMeS]I[αMeL]LD[Orn]K([γGlu-γGlu-C18 diacid])AQ[Aib][Orn]FI[dE][αMeY]LSEGGPSSGEPPPSGQEE-NH2 [Example 570]”, the EC50 at hGLP-1R [1] came out at 1.03 nM; on hGcgR, 5.88 nM; on hGIPR [2] it was 13.6 nM; at hGIPR [3], 0.186 nM; at hGLP-1R [4], 95.1 nM; at human GcgR, 648 nM.
As to “H-Y[Aib]QGT[αMePhe(2-F)]TSD[4Pal]SI[αMeL]LD[Orn]K([AEEA-γGlu-C18 diacid])AQ[αMe4Pal][Orn]FI[dE][αMeY]LIEGGPSSGEPPPEAE-NH2 [Example 676]”, the EC50 on hGLP-1R [1] was 0.267 nM; on hGcgR, 2.34 nM; on hGIPR [2], 1.07 nM; at hGIPR [3], 0.0106 nM; on hGLP-1R [4] it was 24.4 nM; at human GcgR it was 208 nM.
`CC[C@H](C)[C@H](NC(=O)[C@H](Cc1ccccc1)NC(=O)[C@H](C)NC(=O)C(C)(C)NC(=O)[C@H](CCC(N)=O)NC(=O)[C@H](C)NC(=O)[C@H](CCCCNC(=O)COCCOCCNC(=O)CC[C@H](NC(=O)CCCCCCCCCCCCCCCCC(=O)O)C(=O)O)NC(=O)[C@H](CCCCN)NC(=O)[C@H](CC(=O)O)NC(=O)[C@H](CC(C)C)NC(=O)[C@H](CC(C)C)NC(=O)[C@H](CO)NC(=O)[C@H](CO)NC(=O)[C@H](Cc1ccc(O)cc1)NC(=O)[C@H](CC(=O)O)NC(=O)[C@H](CO)NC(=O)[C@@H](NC(=O)[C@](C)(Cc1ccccc1F)NC(=O)[C@@H](NC(=O)CNC(=O)[C@H](CCC(N)=O)NC(=O)C(C)(C)NC(=O)[C@@H](N)Cc1ccc(O)cc1)[C@@H](C)O)[C@@H](C)O)C(=O)N[C@@H](CCC(=O)O)C(=O)N[C@@H](Cc1ccc(O)cc1)C(=O)N[C@@H](CC(C)C)C(=O)N[C@@H](CCC(=O)O)C(=O)N[C@@H](CCC(=O)O)C(=O)NCC(=O)NCC(=O)N1CCC[C@H]1C(=O)N[C@@H](CO)C(=O)N[C@@H](CO)C(=O)NCC(=O)N[C@@H](C)C(=O)N1CCC[C@H]1C(=O)N1CCC[C@H]1C(=O)N1CCC[C@H]1C(=O)N[C@@H](CO)C(N)=O` [Example 409] (H-Y[Aib]QGT[αMePhe(2-F)]TSDYSSLLDKK([AEEA-γGlu-C18 diacid])AQ[Aib]AFIEYLEEGGPSSGAPPPS-NH2): the EC50 at hGLP-1R [1] turned out to be 0.484 nM; on hGcgR it was 7.92 nM; on hGIPR [2], 66.6 nM; on hGIPR [3], 0.363 nM; at hGLP-1R [4] it was 41.7 nM; at human GcgR it was 1190 nM.
Take “H-Y[Aib]QGT[αMePhe(2-F)]TSDYSKLLDKIAQK([AEEA-γGlu-C20 diacid])AFIEYLIEGGPSSGAPPPEGE-NH2 [Example 357]”: the EC50 on hGLP-1R [1] (setting [5]) was 0.625 nM; at hGcgR (setting [5]), 6.21 nM; at hGIPR [2] it was 42.9 nM; on hGIPR [3] (setting [5]), 0.077 nM; on hGLP-1R [4] it was 248 nM; on human GcgR it was 1810 nM.
